# Reference: patent publication US20040014217A1, “Methods of transfection” (priority 2000, published 2004)
# System: Human airway epithelial (HAE) cells
# Assay: Luciferase (pCILuc) transfection of HAE cells, Example 13
# Format: cell-based
# Method: Transfection vector complexes were prepared as described in the Material and Methods section, see also Example 15. The complexes were prepared using 4 μg of the peptide, 0.75 μg of lipofectin and 1 μg of the reporter gene. All components and the vector complex were made up in OptiMEM (Life Technologies, Inc.). EGTA (Sigma) at a concentration of 100 mM in water was added to the transfection vector complex preparation at one hundredth of the volume of the vector complex, giving a final EGTA concentration of 1 mM.
# The EGTA/vector complex mixture was added to the cultures, which were then harvested two days later. As controls, cultures were treated with OptiMEM medium alone and with the transfection vector complex without EGTA.
# We obtained essentially the same results using the luciferase reporter gene instead of GFP. Transfections ere carried out using the transfection vector prepared as described above with the construct pCILuc, with and without EGTA, as described above. Luciferase assays were performed on cell-free extracts of harvested cells using a kit obtained from Promega using an Anthos Lucy 1 Luminometer. As with the GFP experiments, luciferase levels were enhanced approximately four-fold in confluent cells treated with EGTA compared with transfections performed without EGTA. […]
smiles,measurement,setting,value
"O=C(O)CN(CCOCCOCCN(CC(=O)O)CC(=O)O)CC(=O)O [EGTA, ethylene glycol-bis(β-aminoethyl ether)-N,N,N′,N′-tetraacetic acid]",enhancement of luciferase levels in confluent cells versus transfection without EGTA,pCILuc,approximately four-fold
same,transfection after pre-incubation of the cells with EGTA,pre-incubation before vector,no better than the results without EGTA
